The values that follow come from patent US8506947B2 (priority 1999, dated 2013).

The test system of data set [1] is Murine colon adenocarcinoma cells (MC38 cells). Type of data set: cell-based.
The next data set concerns hepatic metastases. As to conditions: cited from earlier work.
The test system of another data set is sarcoma cells. Particulars: gpt gene retrovirally transduced; cited from earlier work.
For data set [2], the system named is transduced sarcoma cell line. Particulars: cited from earlier work.
A further data set relates to glioma cells. As to conditions: cited from earlier work.
The next data set deals with melanoma cells. Particulars: after antibody-β-lactamase conjugate; cited from earlier work.
Another data set relates to intracerebral gliomas. As to conditions: adenovirus carrying HSV-TK intratumorally, IP GCV twice daily for 6 days; cited from earlier work.
Data set [3] relates to subcutaneous tumors (glioma-breast cancer) retrovirally transduced with CYP2B1. Particulars: single IP injection of cyclophosphamide; cited from earlier work.

Like-named read-outs stand apart in the source and are kept apart here.

For the compound `Nc1nc(=O)[nH]cc1F` [5-FC, 5-fluorocytosine], in data set [1], the “cells killed as a result of the 5-FC exposure” value is about 100% and the “effect of the 5-FC exposure on cells” value is “not affected”.

Turning to `Cc1ncnc2c1ncn2[C@H]1C[C@H](O)[C@@H](CO)O1` [6-MPDR, 6-methylpurine deoxyriboside], the cure rate in the data set on hepatic metastases (every other daily injections of 6-MPDR) is listed as 50%; in the data set on hepatic metastases (weekly injections of 6-MPDR) it was 30%.

Take `O=c1[nH]c(=S)c2[nH]cnc2[nH]1` [6-TX, 6-thioxanthine]: in the data set with sarcoma cells, the increased sensitivity is 86 fold. Further, the “treatment mortality due to toxicity of the converted prodrug” value in data set [2] (5 days of treatment with 6-TX) is on record as 10%. The “complete regression, share of the animals” value in data set [2] (after 5 days of treatment with 6-TX) is listed as 95%. The LD50 in the data set on glioma cells (glioma cells transduced with gpt) was 2.5 µmol/L. Moreover, in the data set with glioma cells (untransfected cells at 50 umol/L), the “sensitivity of untransfected cells” value is reported as “minimally sensitive”.

On to `COc1cccc2c1C(=O)c1c(O)c3c(c(O)c1C2=O)C[C@@](O)(C(=O)CO)C[C@@H]3O[C@H]1C[C@H](NC(=O)OCC2=C(C(=O)O)N3C(=O)[C@@H](NC(=O)Cc4ccccc4)[C@H]3SC2)[C@H](O)[C@H](C)O1` [C-Dox, cephalosporin-doxorubicin], for which, in the data set on melanoma cells, the “increase in the sensitivity of cells to the prodrugs” value was 4 fold.

Regarding `Nc1nc(O)c2ncn(COC(CO)CO)c2n1` [GCV, Gancyclovir], in the data set on intracerebral gliomas, the complete regressions was 2 and the “decrease in tumor size compared to controls” value was 23 fold.

With `O=P1(N(CCCl)CCCl)NCCCO1` (stereo not shown) [cyclophosphamide], in data set [3], the “complete inhibition of tumors, share of animals” value was 95%.
